Results published in PMC8746798, “Evaluation of 2-Thioxoimadazolidin-4-one Derivatives as Potent Anti-Cancer Agents through Apoptosis Induction and Antioxidant Activation: In Vitro and In Vivo Approaches” (Molecules, 2021).

Legend:
[1] = tested on: HepG2 cells; assay: Annexin V-FITC/PI apoptosis/necrosis flow cytometry; type: cell-based, human
Source text: (§1) Apoptotic cells were quantified using double staining with annexin V and PI on flow cytometry. […] The detailed methodology of flow cytometric analysis (annexin V/PI differential apoptosis/necrosis, DNA content–flow cytometry aided cell cycle) is provided in the Supplementary Materials.
(§2) Supplementary materials for detailed methodology
(§3) Evaluation of 2-thioxoimadazolidin-4-one Derivatives as Potent
(§4) Anti-cancer Agents Through Apoptosis Induction and Antioxi-dant Activation: In vitro and In vivo Approaches
(§5) Mohamed S. Nafie 1,*, Ahmed I. Khodair 2,*, Hebat Allah Y. Hassan 3, Noha M. Abd El-Fadeal 4, Hanin A. Bogari 5 , Sameh S. Elhady 6 and Safwat A. Ahmed 3,7,* […]
(§6) Apoptosis and necrosis cell populations are determined using Annexin V-FITC apop-tosis detection kit (Abcam Inc., Cambridge Science Park, Cambridge, UK) coupled with 2 fluorescent channels flowcytometry. […]
(§7) Then, cells are incubated in dark with 0.5 ml of Annexin V-FITC/PI solution for 30 min in dark at room temperature according to manufacturer protocol. After staining, cells are injected via ACEA Novocyte™ flowcytometer (ACEA Biosciences Inc., San Diego, CA, USA) and analyzed for FITC and PI fluorescent signals using FL1 and FL2 signal detector, respectively (λex/em 488/530 nm for FITC and λex/em 535/617 nm for PI). […]

[2] = Histopathological examination of liver and kidney (H&E); type: in vivo, mice
Protocol: (§8) We randomly divided 50 mice into groups 5 groups (10 mice in each group): normal control (I) (mice injected intraperitoneally with the same volume of solvent for 14 consecutive days); group II, a group of normal mice treated with compound 4 (mice injected intraperitoneally with newly produced compound 4 at a dose of 6 mg/kg per day for 14 days); group III, solid tumor group (mice were implanted with solid tumor); group IV, group were treated with 5-FU (after 10 days of tumor implantation, mice were treated with 6 mg/kg only once); and group V, solid tumor group were treated with compound 4 (after 10 days of tumor implantation, mice were treated with 6 mg/kg only once). after one day of the previous treatment, 10 mice from each group were sacrificed and tumor weight, tumor volume (length and width of solid femoral tumor), blood and liver samples were obtained from each group. A portion of each blood sample taken was used for complete blood count (CBC) and the rest was centrifuged to obtain the serum. Serum was used for biochemical parameter estimation. The livers were rapidly dissected, washed with isotonic saline, and dried. The experiment design is summarized in Supplementary Figure S3.
Complete blood counts (CBCs) were counted using an AbbottCELLDYN®1800 Automated Hematology Analyzer (Abbott Park, IL, USA) equipped with an off-the-shelf kit (Abbott Laboratories, Abbott Park, IL, USA). For microscopic histopathological examination, tumor and kidney slices were maintained in 10% formalin, dehydrated with graduated alcohol, embedded in paraffin sections, H&E stained, and hematoxylin stained.
Specimens from mice liver cells were fixed in 10% formalin saline. Then, the samples were dehydrated with ascending series of ethanol and embedded in paraffin. A […] thick section was stained with hematoxylin and eosin and examined under a light microscope.

[3] = tested on: HepG2 cells; assay: DNA content flow cytometry cell cycle analysis; type: cell-based, human; conditions: HepG2, IC50 = 0.017 μM, 48 h; control 12.26%
Source text: as §1, §2, §3, §4, §5, §6, §7

[4] = tested on: HepG2 liver cancer cells; assay: MTT assay for cytotoxic screening, HepG2; type: cell-based, human; conditions: Homo sapiens, HepG2, 48 h, mean ± SE, n = 3
Protocol: The in vitro anti-cancer activity was assessed using the MTT assay. […] Staurosporine and 5-FU were used as reference drugs. HepG2 cells (1 × 10^4 cells/well, 96-well plate) were maintained in DMEM media supplemented with 2mML-glutamine (Lonza, Verviers, Belgium) and 10% FBS (Sigma, St. Louis, MO, USA), 1% Penicillin/Streptomycin (Lonza, Verviers, Belgium) according to the routine culture work. Cultures were incubated for 48 h with serial dilutions (0.01, 0.1, 1, 10, 100 µM) of the tested compounds. Finally, cell viability was determined by measuring the absorbance λ570 nm according to the following formula: % of cell viability = (A sapmple/A control) ×100, then IC50 calculation was calculated using GraphPad Prism 7 software.

[5] = Hepatic oxidant and antioxidant assessment; type: in vivo; conditions: liver homogenate, SEC-bearing mice, 6 mg/kg BW
Protocol: as §8
In liver tissue homogenate, a standard commercial kit (BioDiagnostic, Cairo, Egypt) was used to evaluate oxidation and antioxidant parameters according to its methodology, as previously published in Nafie et al., 2020 [57]. Lipid peroxidation (MDA) and nitric oxide (NO) are oxidants, while reduced glutathione (GSH), catalase (CAT), and superoxide dismutase (SOD) are antioxidants.

Which results are given for `O=C1NC(=S)N(c2ccc(O)cc2)/C1=C/c1cccs1` [Compound 4, (E)-1-(4-Hydroxyphenyl)-5-(thiophen-2-ylmethylene)-2-thioxoimidazolidin-4-one]?
necrotic cells (Q1, AV−/PI+) ([1]; HepG2, IC50 = 0.017 μM, 48 h, control 1.05%): 6.08%; apoptosis induction versus control ([1]; HepG2, 11.42% compared to 0.59% in control): 19.35 fold; kidney histopathology ([2]; SEC-bearing mice treated): almost normal, intact renal corpuscles and tubules; liver histopathology ([2]; SEC-bearing mice treated): liver lobules looking normal; liver histopathology ([2]; normal mice treated): normal-looking liver lobules; some hepatocytes showed a hydropic degeneration and a balloon degeneration; % cells in G2/M phase [3]: 21.15%; IC50 [4]: 17 ± 4 nM; GSH (antioxidant) ([5]; SEC control 18.23): 39.27 mg/g Tissue; CAT (antioxidant) ([5]; SEC control 21.69): 46.9 U/g Tissue; SOD (antioxidant) ([5]; SEC control 27.36): 48.69 U/g Tissue; NO (oxidative stress) ([5]; SEC control 79.69): 42.38 U/g Tissue; MDA (oxidative stress) ([5]; SEC control 98.39, n = 6): 73.36 nmol/g Tissue
